Values of other authors as cited in patent US7700579B2, “Process for the preparation of piroxicam: b-cyclodextrin inclusion compounds” (Chiesi Farmaceutici S.p.A., priority 2002, dated 2010).

Settings: pH 5, 37° C.

- solubility in water: 0.003%
SMILES: CN1C(C(=O)Nc2ccccn2)=C(O)c2ccccc2S1(=O)=O [Piroxicam]
